Results on 1 compound are retold here after patent publication US20190365719A1, “COMBINATION TREATMENTS OF HSP90 INHIBITORS FOR ENHANCING TUMOR IMMUNOGENICITY AND METHODS OF USE THEREOF” (Massachusetts Institute of Technology, priority 2018, published 2019).

One data set concerns MC38 cells. The data set can be described thus: MHC Class I peptide profiling of MC38 cells by immunoprecipitation and mass spectrometry. It counts as cell-based, mouse. On the procedure:
MC38 cells were cultured as described above. 10-10 cm (˜1×10^8 cells) plates of MC38 cells were cultured for 72 hours in 0.1% DMSO or 50 nM HSP990. At the time of harvest, plates were washed 1× in PBS, and then cells were lifted using PBS+2 mM EDTA. Cells were then pelleted at 500 g for 5 min and the pellets washed twice more with ice cold PBS. Pellets were then resuspended in 1 mL IP lysis buffer ([…] Tris pH 7.5, 150 mM NaCl, 1% CHAPS, 0.2 mM PMSF, 1× HALT protease/phosphatase inhibitors (Pierce). Lysates were then sonicated with a microtip sonicator for 3×10 s pulses to further disrupt cell membranes, and then centrifuged at 14 k g for 10 min. The supernatant was then quantified at 10 mg total protein lysate was used for the MHC Class IIP.
Peptide MHC isolation was performed using a modified immunoprecipitation and protein filtration protocol, as previously described. […]
Peptides were eluted using a 130 minute gradient with 10-45% buffer B (70% Acetonitrile, 0.2M acetic acid) from 5-100 minutes and 45-55% from 100-120 minutes at a flow rate of 0.2 mL/min for a flow split of approximately 10,000:1. Peptides were analyzed using a Thermo Q Exactive HF-X Hybrid Quadrupole-Orbitrap mass spectrometer. […] Full-scan mass spectrometry spectra [mass/charge ratio (m/z), 350 to 2,000; resolution, 60,000] were detected in the Orbitrap analyzer after accumulation of ions at 3e6 target value. […]

The nature of data set [1]: Plasma HSP90i concentration in mice by LC/MS. It counts as in vivo, C57Bl/6 and NOD-SCID mice. To be noted: 0.5 mg/kg/day in drinking water, both strains (C57Bl/6 and NOD-SCID). Here is the method: For oral dosing with HSP90i, the average water consumption of the mice was calculated by measuring water bottle weight before and after 72 hours of housing to determine the average consumption per mouse, per day. Across all experiments, C57Cl/6 mice consumed approximately 4 mL every day. Using these water consumption values, and mouse weight, a 4 mg/mL stock solution of NVP-HSP990 (in 100% PEG400) was diluted directly into the drinking water to achieve a target dose of 0.5 mg/kg/day. HSP990 treatment was begun 72 hours prior to implantation of MC38 cells to allow the drug to reach steady state level prior to tumor challenge.
Serum NVP-HSP990 levels were analyzed by sacrificing mice, performing a cardiac puncture, and isolating approximately 500 μL of whole blood. Blood was transferred to EDTA-coated microtubes and placed on ice. After all samples were collected, they were spun at 10,000×g for 15 min. The supernatant plasma was collected and stored at −80° C. until further processing. 2×10 μL aliquots of serum from each animal was extracted with 40 μL of ice cold acetonitrile and shaken for 30 min at 4° C. The acetonitrile solvent was spiked with 10 nM imatinib as an internal standard for mass spectrometry. Following extraction, samples were spun at 20,000×g for 15 min and the de-proteinated supernatant transferred to a clean Eppendorf tube prior to mass spectrometry analysis. […]

Regarding `COc1cccc(-c2cc(F)ccc2[C@H]2Cc3nc(N)nc(C)c3C(=O)N2)n1` [NVP-HSP990], the “MHC-I peptide repertoire compared to IFNγ” value with MC38 cells is given as “induced a distinct repertoire of MHC-I peptides”. The “number of unique MHC Class I peptides identified” value in the data set on MC38 cells (50 nM HSP990, 72 hours, 557 from vehicle-treated cells) was 1005. For the same compound, the “plasma concentration of HSP90i” value in data set [1] is approximately 0.02 µM.
